Holding throughout (assay type): cell-based
The target of assay [1] is T1, human CCR6 (Homo sapiens, UniProt P51684).
T1 sequence (P51684 1-374): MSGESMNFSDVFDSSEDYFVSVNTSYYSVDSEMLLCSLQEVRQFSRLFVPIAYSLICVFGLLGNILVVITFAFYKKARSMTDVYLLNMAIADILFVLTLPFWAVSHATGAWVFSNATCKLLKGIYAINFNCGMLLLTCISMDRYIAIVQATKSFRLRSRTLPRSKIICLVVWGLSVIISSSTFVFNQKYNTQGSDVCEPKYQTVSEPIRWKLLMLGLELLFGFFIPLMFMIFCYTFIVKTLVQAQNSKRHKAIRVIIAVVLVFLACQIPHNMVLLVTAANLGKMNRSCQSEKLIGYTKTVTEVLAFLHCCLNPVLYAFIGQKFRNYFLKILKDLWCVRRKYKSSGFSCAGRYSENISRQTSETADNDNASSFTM
Put plainly: CHO-K1 CCR6 chemotaxis assay towards CCL20. Particulars: relative -LogIC50; CHO-K1 cells overexpressing human CCR6, 100 ng/ml CCL20, Transwell, 4 h. The text has this: Cells overexpressing human CCR6 were used in the chemotaxis assay (DiscoverX, CAMP Hunter™ CHO-K1 CCR6 Gi Cell Line). Growth medium of these cells consisted of DMEM/F12, non-essential Amino acids (1×NEAA, Gibco 11140050), 10% FBS and 1× pen/strep (Gibco 15140). For the chemotaxis assay, Corning Transwell plates were used with a pore size of 8 μm (Corning 351164). Cells were harvested using trypsin and diluted to 4*10^6 cells/ml in chemotaxis medium (DMEM, 0.25% BSA, pen/strep). Compounds were four-fold serially diluted in DMSO. Further dilutions were made in chemotaxis medium. Cells were incubated with test compounds for 30 min at 37° C. prior to initiation of the assay (2*10^6 cells/ml). Final DMSO concentration in the assay was 0.2%. Wells of the Transwell plates were filled with 200 μl chemotaxis medium containing 100 ng/ml CCL20 (R&D systems 360-MP). 50 μl of the cell/compound suspension was added to the inserts of the Transwell plates (100,000 cells/insert). The Transwell plates were placed in an incubator at 37° C., 5% CO2 for 4 h. After 4 h, the number of migrated cells was quantified using CellTiter Glo (Promega). Percentage inhibition values were calculated based on the low and high signal obtained with 0.2% DMSO in chemotaxis medium without and with CCL20, respectively. The relative-LogIC50 was determined with GraphPad Prism 9 using a four-parameter dose-response model.

The target in assay [2] is T1, human CCR6. Put plainly: Human CCR6-Cre reporter assay. Particulars: relative -LogIC50; transfected 293 FT cells, 6 μM Forskolin, 6 nM CCL20, luciferase readout, 5h. Set-up: The second construct contained the open reading frame of human CCR6 in the pUNO1 backbone; host or cells: 293 FT cells. As to the method:
293 FT cells were transfected with 2 constructs using TransIT-293 (Mirus). The first construct (pGL4.29, Promega) expressed the luciferase reporter gene luc2P in response to the binding of cAMP-induced CREB to the CRE element in its promoter. The second construct contained the open reading frame of human CCR6 in the pUNO1 backbone under the control of an enhanced CMV promoter (In VivoGen). 48h after transfection, cells were harvested and diluted to 750,000 cells/ml in culture medium (DMEM, 10% FBS, 1× pen/strep (Gibco 15140)). Compounds were 2.5-fold serially diluted in DMSO. Further dilutions were made in assay medium (DMEM, 10% FBS, 1× pen/strep, 6 μM Forskolin, 6 nM CCL20). 4 μl of the compound solution was added to a white MW384 plate, followed by 20 μl of the cell suspension. Final DMSO concentration in the assay was 0.1%. The MW384 plate was placed in an incubator at 37° C., 5% CO2 for 5h. Luciferase activity was determined by addition of 24 μl of a 2.5× diluted BriteLite luciferase solution (Perkin Elmer), followed by luminescence measurement using a VICTOR Plate reader (Perkin Elmer). […] The relative-LogIC50 was determined with GraphPad Prism 9 using a four-parameter dose-response model.
Background: In a reporter assay the amount or activity of a reporter protein is the signal.

In a further assay the test system is Human CD4+ T cells. Put plainly: CD4+ T cell chemotaxis assay towards CCL20. Particulars: relative -LogIC50, 150 ng/ml CCL20, Transwell, 3 h. The text has this:
Human CD4+ T cells were isolated from buffy coats of healthy donors using a CD4+ T Cell Isolation Kit (Miltenyi Biotec130-096-533). Isolated T cells were stimulated overnight with anti-CD3 and anti-CD28 antibodies (Biolegend 300314/302934) in growth medium (RPMI1640, 10% heat-inactivated FBS, 1× pen/strep (Gibco 15140)). For the chemotaxis assay, Corning Transwell plates were used with a pore size of 5 μm (Corning 3388). T cells were counted and diluted to 6*10^6 cells/ml in chemotaxis medium (RPMI1640, 1% BSA, pen/strep). Compounds were four-fold serially diluted in DMSO. Further dilutions were made in chemotaxis medium. Cells were incubated with test compounds for 30 min at 37° C. prior to initiation of the assay (3*10^6 cells/ml). Final DMSO concentration in the assay was 0.2%. Wells of the Transwell plates were filled with 200 μl chemotaxis medium containing 150 ng/ml CCL20 (R&D systems 360-MP). 50 μl of the cell/compound suspension was added to the inserts of the Transwell plates (150,000 cells/insert). The Transwell plates were placed in an incubator at 37° C., 5% CO2 for 3 h. After 3 h, the number of migrated cells was quantified using CellTiter Glo (Promega). Percentage inhibition values were calculated based on the low and high signal obtained with 0.2% DMSO in chemotaxis medium without and with CCL20, respectively. The relative −LogIC50 was determined with GraphPad Prism 9 using a four-parameter dose-response model.

These results are taken from patent publication US20260034125A1, “N-PHENYL-1-(PHENYLSULFONYL)PIPERIDIN-4-AMINE DERIVATIVES AS CCR6 INHIBITORS” (priority 2023, published 2026).

Structures are written as SMILES.

On to `N#Cc1c[nH]c2ccc(-c3ccc(S(=O)(=O)N4CCC(Nc5ccc(C6CC6)cc5)CC4)cc3)cc12` [Example 12, 5-[4-({4-[(4-cyclopropylphenyl)Amino]piperidin-1-yl}sulfonyl)phenyl]-1H-indole-3-carbonitrile], for which the IC50 at human CCR6 [1] and against human CCR6 [2] was 251 nM throughout.
For the compound `O=S(=O)(c1ccc(-c2ccc3nccn3c2)cc1)[C@H]1CC[C@H](Nc2ccc(C3(C(F)(F)F)CC3)cc2)CC1` [Example 17, N-[trans-4-(4-{imidazo[1,2-a]pyridin-6-yl}benzenesulfonyl)cyclohexyl]-4-[1-(trifluoromethyl)cyclopropyl]aniline], the IC50 (in general, the concentration that gives 50% inhibition) is 39.8 nM against human CCR6 [1] and 100 nM at human CCR6 [2].
As for `CNC(=O)c1ccc(-c2ccc(S(=O)(=O)N3CCC(Nc4ccc(C5(C(F)(F)F)CC5)cc4)CC3)cc2)cc1` [Example 5, N-methyl-4′-{[4-({4-[1-(trifluoromethyl)cyclopropyl]phenyl}Amino)piperidin-1-yl]sulfonyl}-[1,1′-biphenyl]-4-carboxamide], the IC50 on human CCR6 [1] and at human CCR6 [2] was 158 nM in each case.
On to `NC(=O)c1cc(-c2ccc(S(=O)(=O)N3CCC(Nc4ccc(C5(C(F)(F)F)CC5)cn4)CC3)cc2)ccn1` [Example 45, 4-(4-{[4-({5-[1-(trifluoromethyl)cyclopropyl]pyridin-2-yl}amino)piperidin-1-yl]sulfonyl}phenyl)pyridine-2-carboxamide], for which the IC50 on human CCR6 [1] was 20 nM; in the assay with Human CD4+ T cells it was 7.94 nM; against human CCR6 [2] it was 31.6 nM.
Take `Cc1cnc2ccc(-c3ccc(S(=O)(=O)N4CCC(Nc5ccc(C6(C(F)(F)F)CC6)cc5)CC4)cc3)cn12` [Example 3, 1-(4-{3-methylimidazo[1,2-a]pyridin-6-yl}benzenesulfonyl)-N-{4-[1-(trifluoromethyl)cyclopropyl]phenyl}piperidin-4-amine]: the IC50 against human CCR6 [1] was 63.1 nM; against human CCR6 [2], 79.4 nM.
The like results for `N#Cc1c[nH]c2ccc(-c3ccc(S(=O)(=O)[C@H]4CC[C@H](Nc5ccc(C6(C(F)(F)F)CC6)cc5)CC4)cc3)cc12` [Example 16, 5-(4-{[trans-4-({4-[1-(trifluoromethyl)cyclopropyl]phenyl}Amino)cyclohexyl]sulfonyl}phenyl)-1H-indole-3-carbonitrile] were, in that order, 5.01 nM and 20 nM.
`CC(C)c1nnc2ccc(-c3ccc(S(=O)(=O)N4CCC(Nc5ccc(C6(C(F)(F)F)CC6)cc5)CC4)cc3)cn12` [Example 40, 1-{4-[3-(propan-2-yl)-[1,2,4]triazolo[4,3-a]pyridin-6-yl]benzenesulfonyl}-N-{4-[1-(trifluoromethyl)cyclopropyl]phenyl}piperidin-4-amine]: the IC50 against human CCR6 [1] was 15.8 nM; in the assay with Human CD4+ T cells, 0.631 nM; against human CCR6 [2] it was 50.1 nM.
`Cc1cc(-c2ccc(S(=O)(=O)N3CCC(Nc4ccc(C5(C(F)(F)F)CC5)cn4)CC3)cc2)cn2c(C(C)C)nnc12` [Example 46, N-(1-{4-[8-methyl-3-(propan-2-yl)-[1,2,4]triazolo[4,3-a]pyridin-6-yl]benzenesulfonyl}piperidin-4-yl)-5-[1-(trifluoromethyl)cyclopropyl]pyridin-2-amine]: the IC50 on human CCR6 [1] is 15.8 nM; in the assay with Human CD4+ T cells it was 2 nM; against human CCR6 [2] it was 63.1 nM.
Regarding `O=S(=O)(c1ccc(-c2ccc3nnc(C(F)F)n3c2)cc1)N1CCC(Nc2ccc(C3(C(F)(F)F)CC3)cn2)CC1` [Example 44, N-(1-{4-[3-(difluoromethyl)-[1,2,4]triazolo[4,3-a]pyridin-6-yl]benzenesulfonyl}piperidin-4-yl)-5-[1-(trifluoromethyl)cyclopropyl]pyridin-2-amine], the IC50 was 6.31 nM against human CCR6 [1], 6.31 nM with Human CD4+ T cells and 50.1 nM on human CCR6 [2].
Regarding `CNC(=O)c1cccc(-c2ccc(S(=O)(=O)N3CCC(Nc4ccc(C5(C(F)(F)F)CC5)cc4)CC3)cc2)c1` [Example 4, N-methyl-4′-{[4-({4-[1-(trifluoromethyl)cyclopropyl]phenyl}Amino)piperidin-1-yl]sulfonyl}-[1,1′-biphenyl]-3-carboxamide], the IC50 on human CCR6 [1] is 25.1 nM; against human CCR6 [2], 79.4 nM.
The like results for `N#Cc1c[nH]c2ccc(-c3ccc(S(=O)(=O)[C@H]4CC[C@H](Nc5ccc(C6COC6)cc5)CC4)cc3)cc12` [Example 19, 5-(4-{[trans-4-{[4-(oxetan-3-yl)phenyl]Amino}cyclohexyl]sulfonyl}phenyl)-1H-indole-3-carbonitrile] were, in that order, 251 nM and 63.1 nM.
